Laboratory results from patent US20240366617A1, “NOVEL CRYSTALLINE FORMS OF A NUCLEOSIDE COMPOUND AND SALTS THEREOF” (priority 2021, published 2024).
In brackets after ≈: the same amount, converted by molar mass. Read-outs that look alike come from different tables or passages of the source.

Legend:
[1] = Placement under 40° C./75% RH (open) conditions for one week (hydrochloride); format: physicochemical
[2] = Study on the stability of influence factors (40° C./75% RH open, 60° C. sealed, 7 days; HPLC and XRPD); format: physicochemical; conditions: for Purity at day 7 (Peak area %) 40° C./75% RH: 40° C./75% RH (open); for Purity at day 7 (Peak area %) 40° C./75% RH / Purity at day 7 (Peak area %) 60° C.: 7 days, HPLC; for Purity at day 7 (Peak area %) 60° C.: 60° C. (sealed sample bottle); for Purity at day 0 (Peak area %): day 0, HPLC; for physical and chemical stability / purity and crystalline structure: 60° C. and 40° C./75% RH for 7 days
Description: X-ray powder diffraction patterns were collected by using a zero-background sample disk on a German Bruker D8 Advance X-ray diffractometer equipped with an automatic sampler. The used radiation source is Cu k α (λ=1.5418 Å), and the light tube voltage is set at 40 KV and the light tube current is set at 40 mA. The divergent slit of X-rays is 0.6 mm. A proper amount of sample was placed in the center of the zero-background sample tray under the environmental condition, the sample was lightly pressed with a clean glass slide to obtain a flat plane, and the zero-background sample rack was fixed. Diffraction analysis of the sample was performed with a scanning step size of 0.02° (2θ) in the range of 3-40° (2θ). The software used for data collection is DIFFRAC.COMMANDER, and the data is analyzed and presented using DIFFRAC.EVA.
The instrument used for liquid chromatography analysis is Agilent HPLC 1260 series,
ATV-014 free base crystalline form I, ATV-014 hydrobromate crystalline form I, and ATV-014 p-toluenesulfonate crystalline form I were taken and placed at 40° C./75% RH (open) and 60° C. (sealed sample bottle) for 7 days. High-performance liquid chromatography and X-ray powder diffraction detection were performed at 0 and 7 days, respectively.

[3] = Moisture absorption on placement under RH (open) conditions for one week; format: physicochemical; conditions: for moisture absorption: one week
Description: • (1) The compound ATV-014 hydrobromate crystalline form I provided herein is placed under 70% RH (open) conditions for one week, the moisture absorption is 0.2%, and under 90% RH (open) conditions for one week, the moisture absorption is 18.8%. • (2) The compound ATV-014 p-toluenesulfonate crystalline form I provided herein is placed under 30% RH (open) conditions for one week, the moisture absorption is 0.4%, and under 90% RH (open) conditions for one week, the moisture absorption is 0.5%.

DVS hygroscopicity test = format: physicochemical
[4] = Bioavailability of ATV014 compared to GS-441524
Description: (§1) The compound ATV014 is a derivative of GS-441524.

[5] = Activity of ATV014 compared to GS-441524
Description: as §1

[6] = Solubility study in biological media (FaSSIF, FeSSIF, SGF, water) at 37° C.; format: physicochemical; conditions: for solubility at 0.5 h / solubility at 2 h / solubility at 24 h: thermodynamic from solid
Method: According to the results of salt formation screening research, the solubilities of free base crystalline form I and p-toluenesulfonate crystalline form I at 0.5 hours, 2 hours, and 24 hours were measured in FaSSIF, FeSSIF, SGF, and water at 37° C.

[7] = compared with Remdesivir; cited from earlier work
[8] = in vivo in mice, compared with Remdesivir; cited from earlier work
[9] = after placement under 30% RH and 90% RH (open) for one week

| SMILES | Purity at day 7 (Peak area %) 40° C./75% RH [2] | Purity at day 7 (Peak area %) 60° C. [2] [%] | Purity at day 0 (Peak area %) [2] [%] | moisture absorption ([3]; 90% RH (open)) [%] | hygroscopicity (DVS results) (DVS hygroscopicity test) | solid form during / after the DVS test (DVS hygroscopicity test) | hygroscopic weight gain (DVS hygroscopicity test; 90% RH) [%] | physical and chemical stability [2] | purity and crystalline structure [2] | pH (solution pH) ([6]; FaSSIF, pH 6.45, 0.5 h) | pH (solution pH) ([6]; FaSSIF, pH 6.45, 2 h) | pH (solution pH) ([6]; FaSSIF, pH 6.45, 24 h) | pH (solution pH) ([6]; FeSSIF, pH 4.95, 0.5 h) | pH (solution pH) ([6]; FeSSIF, pH 4.95, 2 h) | pH (solution pH) ([6]; FeSSIF, pH 4.95, 24 h) | pH (solution pH) ([6]; SGF, pH 1.24, 0.5 h) | pH (solution pH) ([6]; SGF, pH 1.24, 2 h) | pH (solution pH) ([6]; SGF, pH 1.24, 24 h) | pH (solution pH) ([6]; water, pH 5.53, 0.5 h) | pH (solution pH) ([6]; water, pH 5.53, 2 h) | further results |
| --- | --- | --- | --- | --- | --- | --- | --- | --- | --- | --- | --- | --- | --- | --- | --- | --- | --- | --- | --- | --- | --- |
| Cl.N#C[C@@]1(c2ccc3c(N)ncnn23)O[C@H](COC(=O)C2CCCCC2)[C@@H](O)[C@H]1O [ATV-014 hydrochloride crystalline form] |  |  |  |  |  |  |  |  |  |  |  |  |  |  |  |  |  |  |  |  | crystalline structure and chemical purity [1]: have not changed; physical and chemical stability [1]: good |
| Br.N#C[C@@]1(c2ccc3c(N)ncnn23)O[C@H](COC(=O)C2CCCCC2)[C@@H](O)[C@H]1O [ATV-014 hydrobromide crystalline form I] | Liquefaction, | 99.57 | 99.46 | 18.8 | has hygroscopicity | transforms into an amorphous glassy solid | 18.8 |  |  |  |  |  |  |  |  |  |  |  |  |  | state of the sample ([2]; 40° C./75% RH for 7 days): the sample liquefies; purity and crystalline form ([2]; 60° C. for 7 days): remained unchanged; moisture absorption ([3]; 70% RH (open)): 0.2%; hygroscopic weight gain (DVS hygroscopicity test; 70% RH, after equilibrating for 30 to 120 minutes): 0.2% |
| N#C[C@@]1(c2ccc3c(N)ncnn23)O[C@H](COC(=O)C2CCCCC2)[C@@H](O)[C@H]1O [ATV014] |  |  |  |  |  |  |  |  |  |  |  |  |  |  |  |  |  |  |  |  | bioavailability [4]: better; activity [5]: better |
| Cc1ccc(S(=O)(=O)O)cc1.N#C[C@@]1(c2ccc3c(N)ncnn23)O[C@H](COC(=O)C2CCCCC2)[C@@H](O)[C@H]1O.O | 98.71% | 98.62 | 98.60 | 0.5 | slight hygroscopicity | no change in the crystalline structure | 0.5 | good | remained unchanged | 5.7 | 5.67 | 5.85 | 4.65 | 4.62 | 4.83 | 0.69 | 0.70 | 1.20 | 2.05 | 2.07 | moisture absorption ([3]; 30% RH (open)): 0.4%; crystalline structure and chemical purity [3, 9]: have not changed; physical and chemical stability [3, 9]: good; solubility [6]: higher than 5 mg/mL; solubility in water relative to that of free base [6]: 30 times; solubility ([6]; pH 1.24): >5000 µg/mL; XPRD (solid form of the residue) ([6]; pH 4.95): free base; XPRD (solid form of the residue) ([6]; pH 5.53): free base; XPRD (solid form of the residue) ([6]; pH 6.45): free base; pH (solution pH) ([6]; water, pH 5.53, 24 h): 2.43 |
| N#C[C@@]1(c2ccc3c(N)ncnn23)O[C@H](COC(=O)C2CCCCC2)[C@@H](O)[C@H]1O [ATV-014 free base crystalline form I] | 98.09% | 98.10 | 98.12 |  |  |  |  | good | remained unchanged | 6.45 | 6.44 | 6.58 | 4.76 | 4.74 | 4.96 | 0.95 | 0.9 | 1.26 | 7.24 | 6.45 | solubility ([6]; SGF, 37° C., 0.5-24 h, medium not named in the sentence for the p-toluenesulfonate): 2500 to 2900 µg/mL; solubility at 0.5 h ([6]; simulated gastric fluid, SGF, pH 1.24, 0.5 h, 37° C.): 2480 µg/mL (≈ 6180 µM); solubility at 2 h ([6]; simulated gastric fluid, SGF, pH 1.24, 2 h, 37° C.): 2560 µg/mL (≈ 6380 µM); solubility at 24 h ([6]; simulated gastric fluid, SGF, pH 1.24, 24 h, 37° C.): 2860 µg/mL (≈ 7120 µM); solubility at 0.5 h ([6]; FaSSIF, pH 6.45, 0.5 h, 37° C.): 7 µg/mL (≈ 17.4 µM); solubility at 2 h ([6]; FaSSIF, pH 6.45, 2 h, 37° C.): 10 µg/mL (≈ 24.9 µM); solubility at 24 h ([6]; FaSSIF, pH 6.45, 24 h, 37° C.): 21 µg/mL (≈ 52.3 µM); solubility at 0.5 h ([6]; FeSSIF, pH 4.95, 0.5 h, 37° C.): 14 µg/mL (≈ 34.9 µM); solubility at 2 h ([6]; FeSSIF, pH 4.95, 2 h, 37° C.): 19 µg/mL (≈ 47.3 µM); solubility at 24 h ([6]; FeSSIF, pH 4.95, 24 h, 37° C.): 20 µg/mL (≈ 49.8 µM); solubility at 0.5 h ([6]; water, pH 5.53, 0.5 h, 37° C.): 5 µg/mL (≈ 12.5 µM); solubility at 2 h ([6]; water, pH 5.53, 2 h, 37° C.): 6 µg/mL (≈ 14.9 µM); solubility at 24 h ([6]; water, pH 5.53, 24 h, 37° C.): 5 µg/mL (≈ 12.5 µM); pH (solution pH) ([6]; water, pH 5.53, 24 h): 6.5 |
| N#C[C@@]1(c2ccc3c(N)ncnn23)O[C@H](CO)[C@@H](O)[C@H]1O [GS-441524] |  |  |  |  |  |  |  |  |  |  |  |  |  |  |  |  |  |  |  |  | safety [7]: better safety; antiviral effect [8]: superior to that of Remdesivir |
